For one assay, the system named is HCV genotype 1b replicon. Kind of assay: HCV replicon assay, genotype 1b replicon EC50. In kind it is cell-based, Hepatitis C virus. The conditions noted are these: read-out: EC50 [gt-1b]. The gist of the method: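 Stable neomycin phosphotransferase-encoding replicon cell lines, kept under G418 selection beforehand, were plated with a compound dilution series without G418 and incubated 24-48 hours. Replicon RNA was then quantified, or luciferase activity read. EC50 was calculated as percent of DMSO control by four-parameter fit.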
(In general: A replicon is a self-replicating genome or part of one, used to study replication in cells.)

Assay [1] has as its target HCV NS3/4A protease genotype 1b (Hepatitis C virus genotype 1b, UniProt P26663). Kind of assay: HCV NS3/4A protease time-resolved fluorescence (TRF) assay, Ki against genotype 1b. In kind it is biochemical. The conditions noted are these: for IC50: IC50 [gt-1b] (nM), NS3/4A genotype 1b, enzyme 0.2 nM; for pIC50: IC50 [gt-1b], NS3/4A protease TRF assay, genotype 1b enzyme 0.2 nM. The gist of the method: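 NS3/4A enzyme was preincubated 30 min with inhibitor in 50 mM HEPES pH 7.5, 150 mM NaCl, 15% glycerol, 0.15% Triton X-100, 10 mM DTT, 0.1% PEG 8000; 25 nM europium TRF peptide substrate added, 2.5 h at room temperature. Enzyme: 0.2 nM (1b), 0.4 nM (A156T), 0.025 nM (3a). Ki from IC50 via Cheng-Prusoff.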

The mark [2] stands for this setting: Hepatitis C virus, genotype 1b replicon.
Where [3] appears, read: Hepatitis C virus, HCV replicon, genotype 1b.

This passage reports EC50 and IC50 results from patent publication US8987195B2 (priority 2012, dated 2015).

Molecules are shown by their SMILES. pEC50, pIC50: −log10 of the molar value. Read-outs that look alike come from different tables or passages of the source.

For orientation: pEC50 means the negative decadic logarithm of the EC50, by convention in mol/L. By IC50 is commonly meant the concentration that inhibits the measured activity by half. For orientation: pIC50 means the IC50 on a negative log10 scale, so that one unit is a factor of ten.

On to `Cc1nc2ccccc2c2c1O[C@]1(CC2)C[C@H]2C(=O)N[C@]3(C(=O)NS(=O)(=O)C4(C)CC4)C[C@H]3/C=C\CCCCC[C@H](NC(=O)OC(C)C(F)(F)F)C(=O)N2C1` (stereo partly drawn) [Example 197, 1,1,1-trifluoropropan-2-yl [(2R,6S,12Z,13aS,14aR,16aS)-5′-methyl-14a-{[(1-methylcyclopropyl)sulfonyl]carbamoyl}-5,16-dioxo-1,1′,2′,5,6,7,8,9,10,11,13a,14,14a,15,16,16a-hexadecahydrospiro[cyclopropa[e]pyrrolo[1,2-a][1,4]diazacyclopentadecine-2,3′-pyrano[2,3-c]quinolin]-6-yl]carbamate], for which, in the assay on HCV genotype 1b replicon (genotype 1b replicon), the pEC50 was 8.01. This compound had an IC50 in assay [1] of 0.004 nM.
Take `Cc1nc2ccc(OC(F)(F)F)cc2c2c1O[C@]1(CC2)C[C@H]2C(=O)N[C@]3(C(=O)NS(=O)(=O)C4(C)CC4)C[C@H]3/C=C\CCCCC[C@H](NC(=O)OCC3CCCC3)C(=O)N2C1` [Example 146, cyclopentylmethyl [(2R,6S,12Z,13aS,14aR,16aS)-5′-methyl-14a-{[(1-methylcyclopropyl)sulfonyl]carbamoyl}-5,16-dioxo-9′-(trifluoromethoxy)-1,1′,2′,5,6,7,8,9,10,11,13a,14,14a,15,16,16a-hexadecahydrospiro[cyclopropa[e]pyrrolo[1,2-a][1,4]diazacyclopentadecine-2,3′-pyrano[2,3-c]quinolin]-6-yl]carbamate]: the pEC50 with HCV genotype 1b replicon (setting [2]) is 7.93. In assay [1], this compound yielded a half-inhibitory concentration (IC50) of 0.03 nM.
For `Cc1nc2ccc(Cl)cc2c2c1O[C@]1(CC2)C[C@H]2C(=O)N[C@]3(C(=O)NS(=O)(=O)C4(C)CC4)C[C@H]3/C=C\CCCCC[C@H](NC(=O)OCC3CCC3)C(=O)N2C1` [Example 221, cyclobutylmethyl [(2R,6S,12Z,13aS,14aR,16aS)-9′-chloro-5′-methyl-14a-{[(1-methylcyclopropyl)sulfonyl]carbamoyl}-5,16-dioxo-1,1′,2′,5,6,7,8,9,10,11,13a,14,14a,15,16,16a-hexadecahydrospiro[cyclopropa[e]pyrrolo[1,2-a][1,4]diazacyclopentadecine-2,3′-pyrano[2,3-c]quinolin]-6-yl]carbamate], in that order: 7.94 and 0.008 nM.
For the compound `Cc1nc2ccccc2c2c1O[C@]1(CC2)C[C@H]2C(=O)N[C@]3(C(=O)NS(=O)(=O)C4(C)CC4)C[C@H]3/C=C\CCCCC[C@H](NC(=O)NCc3ccccc3)C(=O)N2C1` [Example 284, (2R,6S,12Z,13aS,14aR,16aS)-6-[(benzylcarbamoyl)amino]-5′-methyl-N-[(1-methylcyclopropyl)sulfonyl]-5,16-dioxo-1,1′,2′,6,7,8,9,10,11,13a,14,15,16,16a-tetradecahydrospiro[cyclopropa[e]pyrrolo[1,2-a][1,4]diazacyclopentadecine-2,3′-pyrano[2,3-c]quinoline]-14a(5H)-carboxamide], the pEC50 with HCV genotype 1b replicon (Hepatitis C virus, genotype 1b replicon, HCOOH salt) was 7.23. In assay [1] (HCOOH salt), the IC50 amounted to 0.038 nM.
Consider `COCC1(S(=O)(=O)NC(=O)[C@@]23C[C@H]2/C=C\CCCCC[C@H](NC(=O)OCC(C)C)C(=O)N2C[C@@]4(CCc5c(c(C(F)(F)F)nc6ccc(OC)cc56)O4)C[C@H]2C(=O)N3)CC1` [Example 473, 2-methylpropyl [(2R,6S,12Z,13aS,14aR,16aS)-9′-methoxy-14a-({[1-(methoxymethyl)cyclopropyl]sulfonyl}carbamoyl)-5,16-dioxo-5′-(trifluoromethyl)-1,1′,2′,5,6,7,8,9,10,11,13a,14,14a,15,16,16a-hexadecahydrospiro[cyclopropa[e]pyrrolo[1,2-a][1,4]diazacyclopentadecine-2,3′-pyrano[2,3-c]quinolin]-6-yl]carbamate], for which the pEC50 in the assay on HCV genotype 1b replicon (setting [3]) was 8.64. For the same compound, the pIC50 in assay [1] is 10.51.
The like results for `CC[C@H](C)OC(=O)N[C@H]1CCCCC/C=C\[C@@H]2C[C@@]2(C(=O)NS(=O)(=O)C2(C)CC2)NC(=O)[C@@H]2C[C@]3(CCc4c(c(C5CC5)nc5ccc(OC)cc45)O3)CN2C1=O` [Example 421, (2S)-butan-2-yl [(2R,6S,12Z,13aS,14aR,16aS)-5′-cyclopropyl-9′-methoxy-14a-{[(1-methylcyclopropyl)sulfonyl]carbamoyl}-5,16-dioxo-1,1′,2′,5,6,7,8,9,10,11,13a,14,14a,15,16,16a-hexadecahydrospiro[cyclopropa[e]pyrrolo[1,2-a][1,4]diazacyclopentadecine-2,3′-pyrano[2,3-c]quinolin]-6-yl]carbamate] were, in that order, 8.76 and 10.62.
Regarding `COc1ccc2nc(C(C)C)c3c(c2c1)C(F)(F)C[C@]1(C[C@H]2C(=O)N[C@]4(C(=O)NS(=O)(=O)C5(C)CC5)C[C@H]4/C=C\CCCCC[C@H](NC(=O)OC(C)(C)C)C(=O)N2C1)O3` [Example 3, tert-Butyl (2S,6S,13aS,14aR,16aS,Z)-1′,1′-difluoro-5′-isopropyl-9′-methoxy-14a-(1-methylcyclopropylsulfonylcarbamoyl)-5,16-dioxo-1′,2′,3,5,6,7,8,9,10,11,13a,14,14a, 15,16,16a-hexadecahydro-1H-spiro[cyclopropa[e]pyrrolo[1,2-a][1,4]diazacyclopentadecine-2,3′-pyrano[2,3-c]quinoline]-6-ylcarbamate], the negative logarithm of the EC50 (pEC50) with HCV genotype 1b replicon (setting [2]) was 8.54. The compound further registered a concentration for half-maximal inhibition (IC50) in assay [1] of 0.004 nM.
On to `CCc1nc2ccc(OC)cc2c2c1O[C@]1(C[C@H]2F)C[C@H]2C(=O)N[C@]3(C(=O)NS(=O)(=O)C4(C)CC4)C[C@H]3/C=C\CCCCC[C@H](NC(=O)OC(C)(C)C)C(=O)N2C1` [Example 439, tert-butyl [(1′R,2S,6S,12Z,13aS,14aR,16aS)-5′-ethyl-1′-fluoro-9′-methoxy-14a-{[(1-methylcyclopropyl)sulfonyl]carbamoyl}-5,16-dioxo-1,1′,2′,5,6,7,8,9,10,11,13a,14,14a,15,16,16a-hexadecahydrospiro[cyclopropa[e]pyrrolo[1,2-a][1,4]diazacyclopentadecine-2,3′-pyrano[2,3-c]quinolin]-6-yl]carbamate], for which the pEC50 in the assay with HCV genotype 1b replicon (setting [3]) is 8.81. The compound also gave a negative-log IC50 (pIC50) in assay [1] of 11.05.
In the case of `Cc1nc2ccccc2c2c1O[C@@]1(CC2)C[C@H]2C(=O)N[C@]3(C(=O)NS(=O)(=O)C4(C)CC4)C[C@H]3/C=C\CCCCC[C@H](NC(=O)OC(C)(C)C)C(=O)N2C1` [Example 75, tert-butyl [(2S,6S,12Z,13aS,14aR,16a5)-5′-methyl-14a-{[(1-methylcyclopropyl)sulfonyl]carbamoyl}-5,16-dioxo-1,1′,2′,5,6,7,8,9,10,11,13a,14,14a,15,16,16a-hexadecahydrospiro[cyclopropa[e]pyrrolo[1,2-a][1,4]diazacyclopentadecine-2,3′-pyrano[2,3-c]quinolin]-6-yl]carbamate], in the assay on HCV genotype 1b replicon (setting [2]), the pEC50 is 8.13. The compound also had a half-inhibitory concentration (IC50) in assay [1] of 0.022 nM.
Take `COc1ccc2nc(C)c3c(c2c1)CC[C@]1(C[C@H]2C(=O)N[C@]4(C(=O)NS(=O)(=O)C5(C)CC5)C[C@H]4/C=C\CCCCC[C@H](NC(=O)OC(C(C)C)C(F)(F)F)C(=O)N2C1)O3` (stereo partly drawn) [Example 407, 1,1,1-trifluoro-3-methylbutan-2-yl [(2R,6S,12Z,13aS,14aR,16aS)-9′-methoxy-5′-methyl-14a-{[(1-methylcyclopropyl)sulfonyl]carbamoyl}-5,16-dioxo-1,1′,2′,5,6,7,8,9,10,11,13a,14,14a,15,16,16a-hexadecahydrospiro[cyclopropa[e]pyrrolo[1,2-a][1,4]diazacyclopentadecine-2,3′-pyrano[2,3-c]quinolin]-6-yl]carbamate]: in the assay with HCV genotype 1b replicon (Hepatitis C virus, HCV replicon, genotype 1b, K+ salt), the pEC50 was 8.82. In addition, in assay [1] (K+ salt), the pIC50 was 10.72.
As for `CC(C)(C)COC(=O)N[C@H]1CCCCC/C=C\[C@@H]2C[C@@]2(C(=O)NS(=O)(=O)C2(C)CC2)NC(=O)[C@@H]2C[C@]3(CCc4c(c(C5CC5)nc5ccc6c(c45)OCO6)O3)CN2C1=O` [Example 324, 2,2-dimethylpropyl [(2R,6S,12Z,13aS,14aR,16aS)-7′-cyclopropyl-14a-{[(1-methylcyclopropyl)sulfonyl]carbamoyl}-5,16-dioxo-1,5,6,7,8,9,10,10′,11,11′,13a,14,14a,15,16,16a-hexadecahydrospiro[cyclopropa[e]pyrrolo[1,2-a][1,4]diazacyclopentadecine-2,9′-[1,3]dioxolo[4,5-f]pyrano[2,3-c]quinolin]-6-yl]carbamate], the pEC50 with HCV genotype 1b replicon (setting [2]) is 8.44. This compound also had an IC50 in assay [1] of 0.022 nM.
Regarding `CC(C)(C)OC(=O)N[C@H]1CCCCC/C=C\[C@@H]2C[C@@]2(C(=O)NS(=O)(=O)C2(C)CC2)NC(=O)[C@@H]2C[C@]3(CCc4c(c(C(F)(F)F)nc5ccccc45)O3)CN2C1=O` [Example 4, tert-Butyl (2R,6S,13aS,14aR,16aS,Z)-14a-(1-methylcyclopropylsulfonylcarbamoyl)-5,16-dioxo-5′-(trifluoromethyl)-1′,2′,3,5,6,7,8,9,10,11,13a,14,14a,15,16,16a-hexadecahydro-1H-spiro[cyclopropa[e]pyrrolo[1,2-a][1,4]diazacyclopentadecine-2,3′-pyrano[2,3-c]quinoline]-6-ylcarbamate], the pEC50 in the assay with HCV genotype 1b replicon (setting [2]) is 9.09. For the same compound, the midpoint of inhibition in assay [1], the IC50, lay at 0.009 nM.
